Results reported in US9688721B2, “Tubulysin compounds, methods of making and use” (priority 2013, dated 2017).
Like-named read-outs stand apart in the source and are kept apart here.

Key:
H226 lung cancer cells = assay: ATP luminescence assay (CELLTITER-GLO), H226 cells; type: cell-based
Protocol: (§1) As controls, doxorubicin and the tubulysin analog Compound A, which contains an acetate group instead of a carbamate group at the Tuv subunit, were used. Compound A can be prepared according to the teachings of Cheng et al. 2011.
(§2) Tumor cell lines were obtained from the American Type Culture Collection (ATCC), P.O. Box 1549, Manassas, Va. 20108, USA, and cultured according to ATCC instructions. Cells were seeded at 1.0×10^3 cells/well in 96-well plates for 3 h for the ATP assays. 1:3 serial dilutions of the compounds were added to the wells. Plates were allowed to incubate for 24 to 72 h. […] The EC50 values—the concentration at which an agent inhibits or reduces cell proliferation by 50%—were determined using PRISM™ software, version 4.0 (GraphPad Software, La Jolla, Calif., USA).

786-O renal cancer cells = assay: ATP luminescence assay (CELLTITER-GLO), 786-O cells; type: cell-based
Protocol: as §1, §2

N87 gastric cancer cells = conditions: ATP luminescence assay
Protocol: as §2

Compound	EC50 (H226 lung cancer cells; Homo sapiens, NCI-H226)	EC50 (786-O renal cancer cells; Homo sapiens, 786-0)	further results
CCOC(=O)C(C)C[C@H](Cc1ccccc1)NC(=O)c1csc([C@@H](C[C@H](C(C)C)N(CCc2ccc(N)cc2)C(=O)[C@@H](NC(=O)[C@H]2CCCCN2C)[C@@H](C)CC)OC(=O)NC)n1 (some centres unmarked) [(I-5)]	19.5 nM	22.9 nM	
CC[C@H](C)[C@H](NC(=O)[C@H]1CCCCN1C)C(=O)N(CCc1ccc(N)cc1)[C@H](C[C@@H](OC(=O)NC)c1nc(C(=O)N[C@@H](Cc2ccccc2)CC(C)C(=O)OC)cs1)C(C)C (some centres unmarked) [(I-6)]	9.9 nM	22.8 nM	
CC[C@H](C)[C@H](NC(=O)[C@H]1CCCCN1C)C(=O)N(CCc1ccc(N)cc1)[C@H](C[C@@H](OC(=O)NC)c1nc(C(=O)N[C@@H](Cc2ccccc2)CC(C)C(=O)O)cs1)C(C)C (some centres unmarked) [(I-7)]	15.4 nM	12.5 nM	
CC[C@H](C)[C@H](NC(=O)[C@H]1CCCCN1C)C(=O)N(C)[C@H](C[C@@H](OC(=O)Nc1ccccc1)c1nc(C(=O)N[C@@H](Cc2ccc(N)cc2)C[C@H](C)C(=O)O)cs1)C(C)C [Compound 75b]			EC50 (N87 gastric cancer cells): 0.39 nM
CC[C@H](C)[C@H](NC(=O)[C@H]1CCCCN1C)C(=O)N(C)[C@H](C[C@@H](OC(=O)N(C)C)c1nc(C(=O)N[C@@H](Cc2ccc(N)cc2)C[C@H](C)C(=O)O)cs1)C(C)C [Compound 75c]			EC50 (N87 gastric cancer cells): 5.4 nM
CC[C@H](C)[C@H](NC(=O)[C@H]1CCCCN1C)C(=O)N(C)[C@H](C[C@@H](OC(C)=O)c1nc(C(=O)N[C@@H](Cc2ccccc2)C[C@H](C)C(=O)O)cs1)C(C)C [Compound A, reference compound]	2.4 nM	1.2 nM	
COc1cccc2c1C(=O)c1c(O)c3c(c(O)c1C2=O)C[C@@](O)(C(=O)CO)C[C@@H]3O[C@H]1C[C@H](N)[C@H](O)[C@H](C)O1 [doxorubicin, reference compound]			EC50 (H226 lung cancer cells; Homo sapiens, NCI-H226, H226 lung cancer cells, ATP luminescence assay, read-out: EC50): 115 nM; EC50 (786-O renal cancer cells; Homo sapiens, 786-0, 786-O renal cancer cells, ATP luminescence assay, read-out: EC50): 68.9 nM
CC[C@H](C)[C@H](NC(=O)[C@H]1CCCCN1C)C(=O)N(COC(=O)CC(C)C)[C@H](C[C@@H](OC(C)=O)c1nc(C(=O)N[C@@H](Cc2ccccc2)C[C@H](C)C(=O)O)cs1)C(C)C [tubulysin D, reference compound]			EC50 (H226 lung cancer cells; H226 lung cancer cells, ATP luminescence assay, read-out: EC50): 0.05 nM; EC50 (786-O renal cancer cells; 786-O renal cancer cells, ATP luminescence assay, read-out: EC50): 0.02 nM
